Experimental data as given in patent EP1743640A1, “Use of substituted pyrazoline compounds for the preparation of paediatric medicaments” (LABORATORIOS DEL DR. ESTEVE, S.A., priority 2005, dated 2007).

Key:
[1] = biological target: T1, CB2-Receptor (Homo sapiens, UniProt P34972); assay: In-vitro determination of affinity to CB2 receptor (radioligand [3H]-CP55940); type: binding
T1 construct: purchased Receptor Biology, Inc
Experimental: (§1) I. In-vitro determination of affinity to CB1/CB2-Receptors
(§2) The in-vitro determination of the affinity of the substituted pyrazoline compounds to CB1/CB2-Rezeptors is carried out as described in the publication of Ruth A. Ross, Heather C. Brockie et al., "Agonist-inverse agonist characterization at CB1 and CB2 cannabinoid receptors of L-759633, L759656 and AM630", British Journal of Pharmacology, 126, 665-672, (1999), whereby the transfected human CB1 and CB2 receptors of Receptor Biology, Inc. are used. The radioligand used for both receptors is [^3H]-CP55940. The respective parts of the description is hereby incorporated by reference and forms part of the present disclosure.

[2] = system: cannabinoid receptors; assay: Mouse tetrad model, antagonistic effect against Win 55212-2; type: in vivo, Male NMRI mice; parameters: unit not given here; conditions: 5 mg/kg i.v. prior to Win 55212-2 in a dose of 1,25mg/kg i.v.
From the text: (§3) Substances with affinity for cannabinoid receptors are known to produce a wide range of pharmacological effects. It is also known that intravenous administration of a substance with affinity for cannabinoid receptors in mice produces analgesia , hypothermia, sedation and catalepsy. Individually, none of these effects can be considered as proof that a tested substance has affinity for cannabinoid-receptors, since all of these effects are common for various classes of centrally active agents. However, substances, which show all of these effects, i.e. substances that are active in this so-called tetrad model are considered to have affinity for the cannabinoid receptors. It has further been shown that cannabinoid receptor antagonists are higly effective in blocking the effects of a cannabinoid agonist in the mouse tetrad model.
(§4) The tetrad model is described, for example, in the publication of A. C. Howlett et al, Intemational Union of Pharmacology XXVII. Classification of Cannabinoid Receptors, Pharmacol Rev 54, 161-202 , 2002 and David R. Compton et al., "In-vivo Characterization of a Specific Cannabinoid Receptor Antagonist (SR141716A) :Inhibition of Tetrahydrocannbinol- induced Responses and Apparent Agonist Activity", J. Pharmacol. Exp. Ther. 277 , 2, 586-594, 1996. The corresponding parts of the description are hereby incorporated by reference.
(§5) Male NMRI mice with a weight of 20-30 g (Harlan, Barcelona, Spain) are used in all of the following experiments.
(§6) Before testing in the behavioral procedures given below, mice are acclimatized to the experimental setting. Pre-Treatment control values are determined for analgesia hot plate latency (in seconds), rectal temperature, sedation and catalepsy.
(§7) In order to determine the agonistic activty of the substance to be tested, the mice are injected intravenously with the substance to be tested or the vehicle alone. 15 minutes after injection, latency in hot plate analgesia is measured. Rectal temperature, sedation and catalepsy are measured 20 minutes after injection.
In order to determine the antagonistic activity the identical procedure is used as for the determination of the agonistic effects, but with the difference that the substance to be evaluated for its antagonistic activity is injectected 5 minutes before the intravenous injection of 1.25 mg/kg Win-55,212 a known cannabinoid-receptor agonist.
(§8) The hot plate analgesia is determined according to the method described in Woolfe D. et al. "The evaluation of analgesic action of pethidine hydrochloride (Demerol)", J. Pharmacol. Exp. Ther. 80, 300-307,1944. The respective description is hereby incorporated by reference and forms part of the present disclosure.
(§9) The mice are placed on a hot plate (Harvard Analgesimeter) at 55 ± 0.5 °C until they show a painful sensation by licking their paws or jumping and the time for these sensations to occur is recorded. This reading is considered the basal value (B). The maximum time limit the mice are allowed to remain on the hot plate in absence of any painful response is 40 seconds in order to prevent skin damage. This period is called the cut-off time (PC).
(§10) Fifteen minuts after the administration of the substance to be tested, the mice are again placed on the hot plate and the afore described procedure is repeated. This period is called the post-treatment reading (PT).
(§11) The degree of analgesia is calculated from the formula : %MPE of Analgesia = (PT-B)/(PC-B) × 100 [formula]
(§12) Sedation and ataxia is determined according to the method described in Desmet L. K. C. et al. "Anticonvulsive properties of Cinarizine and Flunarizine in Rats and Mice", Arzneim. -Forsch. (Frug Res) 25, 9, 1975. The respective description is hereby incorporated by reference and forms part of the present disclosure.
The chosen scoring system is • 0: no ataxia; • 1: doubful; • 2: obvious calmness and quiet; • 3 pronounced ataxia; prior to as well as after treatment. […]

[3] = system: cannabinoid receptors; assay: Mouse tetrad model, agonistic effect; type: in vivo, Male NMRI mice; parameters: key to Agonistic effect D: Sedation: % sedation = mean score (0-3 scale)/3 × 100; Agonistic effect A: Hot-Plate test / Agonistic effect B: Hypothermia / Agonistic effect C: Catalepsy: unit not given here; conditions: 5 mg/kg i.v.
From the text: as §3, §4, §5, §6, §7, §8, §9, §10, §11, §12
The chosen scoring system is • 0: no ataxia; • 1: doubful; • 2: obvious calmness and quiet; • 3 pronounced ataxia; prior to as well as after treatment.
The percentage of sedation is determined according to the formula: %of sedation = arithmetic mean/3 × 100 [formula]
Hypothermia is determined according to the method described in David R. Compton et al. "In-vivo Characterization of a Specific Cannabinoid Receptor Antagonist (SR141716A) Inhibition of Tetrahydrocannbinol- induced Responses and Apparent Agonist Activity", J. Pharmacol Exp Ther. 277 , 2, 586-594, 1996. […]

[4] = biological target: T2, CB1-Receptor (Homo sapiens, UniProt P21554); assay: In-vitro determination of affinity to CB1 receptor (radioligand [3H]-CP55940); type: binding
T2 construct: purchased Receptor Biology, Inc
T2 sequence (P21554 whole entry): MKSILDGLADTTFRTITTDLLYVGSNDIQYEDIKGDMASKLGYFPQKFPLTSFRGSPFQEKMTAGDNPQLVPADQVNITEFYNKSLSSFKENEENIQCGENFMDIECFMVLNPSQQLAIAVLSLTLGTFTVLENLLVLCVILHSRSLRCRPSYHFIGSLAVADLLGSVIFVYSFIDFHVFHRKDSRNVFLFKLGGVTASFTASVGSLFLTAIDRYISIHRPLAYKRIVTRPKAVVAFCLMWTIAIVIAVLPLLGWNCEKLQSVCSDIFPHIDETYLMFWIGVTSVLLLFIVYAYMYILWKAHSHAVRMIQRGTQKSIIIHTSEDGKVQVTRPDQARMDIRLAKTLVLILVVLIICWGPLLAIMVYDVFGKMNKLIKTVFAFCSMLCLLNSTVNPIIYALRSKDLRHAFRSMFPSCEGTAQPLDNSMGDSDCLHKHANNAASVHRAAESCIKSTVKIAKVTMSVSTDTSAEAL
Experimental: as §1, §2

T1 sequence (P34972 whole entry): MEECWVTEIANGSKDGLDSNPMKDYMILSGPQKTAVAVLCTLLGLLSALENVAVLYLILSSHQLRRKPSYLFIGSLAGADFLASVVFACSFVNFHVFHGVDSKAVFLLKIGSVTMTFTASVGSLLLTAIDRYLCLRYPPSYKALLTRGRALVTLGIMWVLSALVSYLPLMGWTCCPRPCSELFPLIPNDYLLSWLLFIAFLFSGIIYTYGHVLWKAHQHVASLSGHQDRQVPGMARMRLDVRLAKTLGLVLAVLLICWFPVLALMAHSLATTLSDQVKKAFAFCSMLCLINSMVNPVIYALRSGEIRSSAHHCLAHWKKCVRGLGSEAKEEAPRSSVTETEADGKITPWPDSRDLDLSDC

| SMILES | Ki [1] [nM] | Antagonistic Effect A: Hot-Plate test [2] | Antagonistic Effect B: Hypothermia [2] | Antagonistic Effect C: Catalepsy [2] | Antagonistic Effect D: Sedation [2] | Agonistic effect A: Hot-Plate test [3] | Agonistic effect B: Hypothermia [3] | Agonistic effect C: Catalepsy [3] | Agonistic effect D: Sedation [3] | Ki [4] [nM] |
| --- | --- | --- | --- | --- | --- | --- | --- | --- | --- | --- |
| O=C(C1=NN(c2ccc(Cl)cc2Cl)C(c2ccc(Cl)cc2)C1)N1CCCCC1 (stereo not shown) [Example 5, (5-(4-Chloro-phenyl)-1-(2,4-dichloro-phenyl)-4,5-dihydro-1 H-pyrazol-3-yl]-piperidin-1-yl-methanone] | ~1000 | 50 | 40 | 20 | 20 | 0 | 50 | 0 | 0 |  |
| O=C(NN1CCCCC1)C1=NN(c2ccc(Cl)cc2Cl)C(c2ccc(Cl)cc2)C1 (stereo not shown) [Example 1, N-piperidinyl-5-(4-chlorophenyl)-1-(2,4-dichlorophenyl)-4,5-dihydro-1H-pyrazole-3-carboxamide] | > 1000 | 74 | 100 | 100 | 100 | 0 | 0 | 0 | 0 | < 25 |
